Source: patent publication US4039666A, “Anticonvulsant phenylsilanes” (Dow Corning Corporation, priority 1976, dated 1977)
Where two headings read alike, the source gives them in different places.

Legend:
mice [1] = assay: Electroshock test (Maximal Electroshock Test, M.E.S.), inhibition of tonic extension of hind limbs; type: in vivo, mice (adult male, Carworth CF 1 strain); details: for ED50: Mus musculus
Protocol: The electroshock test procedure was used to determine anticonvulsant activities of diphenylmethylsilanol. Adult male mice (Carworth CF 1 strain) were utilized as test animals. […] Seizure protection was scored as inhibition of tonic extension. Groups of mice (six/group) were dosed orally with varying amounts of diphenylmethylsilanol in a sesame oil suspension. The dosages ranged from 10 to 1000 mg./kg. and the train of electric shocks was applied 2, 4 and 6 hours after dosing. The effective dose to prevent convulsions in half the animals (ED50) was determined at 2, 4 and 6 hours to be 52, 63, 100 mg/kg, respectively, and the 95 percent CI (confidence interval) was 23 to 114 mg./kg.; 27 to 141 mg./kg.; 47 to 212 mg./kg.
The electric shock test procedure was also used to determine anticonvulsant activities of phenylmethyldimethoxysilane. Adult male mice (Carworth CF 1 strain) were utilized as test animals. […] Seizure protection was scored as in Example 1. Groups of mice ten/group) were dosed orally with varying amounts of phenylmethyldimethoxysilane in a sesame oil solution. The dosages ranged from 25 to 200 mg./kg. and the train of electric shocks was applied 1/2, 1, 11/2, 2 and 3 hours after dosing. The effective dose to prevent convulsions in half the animals (ED50) was determined at 1/2, 1, 11/2, 2 and 3 hours to be 52, 86, 64, 82 and 90 mg./kg., respectively. Utilizing the same electroshock test procedure as set forth in the first paragraph of this example, groups of mice (ten/group) were dosed intraperitoneally with varying amounts of phenylmethyldimethoxysilane in a sesame oil solution. The dosages ranged from 25 to 200 mg./kg. and the train of electric shocks was applied 1/2, 1, 11/2, 2 and 3 hours after dosing. The effective dose to prevent convulsions in half the animals (ED50) was determined at 1/2, 1, 11/2, 2 and 3 hours to be 45, 65, 52, 51 and 70 mg./kg., respectively.
The electric shock test used in Example 1 and 2 was used in determining the anticonvulsant activities of several other silanes.
(§1) ^1 The test silane was administered orally in sesame oil vehicle at
^2 M.E.S. - Maximal Electroshock Test - ED50 is dose calculated
to protect 50% of mice from tonic extensor convulsion. The dosages ranged

mice [2] = assay: Potentiation of hexobarbital sleep time (relative sedative activity); type: in vivo, mice (male, Carworth CF1 strain); details: Table I; 316 mg/kg test compound oral, 90 minutes before hexobarbital 100 mg/kg i.p.
Protocol: As a test of relative sedative activity of the various silanes, the ability of each to potentiate the action of hexobarbital was studied. For each silane, two groups of male mice (Carworth CF1 strain) were utilized as test animals. Two groups of mice (six/group) were used, one group was orally dosed with 316 mg./kg. of the test silane in sesame oil carrier 90 minutes before administration of hexobarbital. Hexobarbital was administered by intraperitoneal injection of 100 mg./kg. in saline carrier. The time from loss of the righting reflex to recovery of the righting reflex was recorded as sleep time. Potentiation of hexobarbital of the test silane is the ratio of the mean sleep time by the group of test animals dosed with the silane divided by the mean sleep time of the control group not dosed with silane.
^4 Potentiation of hexobarbital - values are the ratios of sleep time
of animals dosed with 316 mg/kg test compound plus 100 mg/kg hexobarbital
to the sleep times of animals dosed with hexobarbital alone.

mice [3] = assay: Protection vs. pentylenetetrazol clonic convulsions; type: in vivo; details: Table I, 316 mg/kg test compound, oral in sesame oil, pentylenetetrazol 80 mg/kg s.c., n.p. = no protection observed; for responders at 316 mg/kg: Mus musculus, read-out: Protection vs. Pentylenetetrazol (numbers of mice protected from clonic convulsion/number tested) (converted)
Protocol: as §1
^3 Pentylenetetrazol 80 mg/kg s.c. produces clonic convulsions in 90%
of control mice. Values in table are the numbers of mice protected from
clonic convulsion/number tested when dosed with 316 mg/kg test compound.

Acute oral LD50 = type: in vivo, mice (male, 25 gm.); details: mouse, in vivo; Table II; male mice, oral in sesame oil, highest dose 5000 mg/kg, observed 14 days, Finney's method; read-out: LD50 (95% Confidence Interval)
Protocol: ^1 Male mice, 25 gm. were used. Each compound was
given orally in sesame oil at doses ranging from
highest dose was 5000 mg/kg. The mice were
observed for 14 days and the number of deaths
was recorded. LD50 values were calculated by […]

[4] = Table I, oral, sesame oil, 2 hours after dosing, n.p. = no protection observed, read-out: MES ED50
[5] = Table I, oral, sesame oil, 4 hours after dosing, read-out: MES ED50
[6] = Table I, oral, sesame oil, 6 hours after dosing, read-out: MES ED50

Row | Structure (SMILES) | ED50 (mice [1]; [4]) | ED50 (mice [1]; [5]) | ED50 (mice [1]; [6]) | Potentiation of Hexobarbital (ratio of sleep time with test compound to hexobarbital alone) (mice [2]) | responders at 316 mg/kg (mice [3]) | Protection vs. Pentylenetetrazol (numbers of mice protected from clonic convulsion/number tested) (mice [3]) | further results
1 | C[Si](O)(c1ccccc1)c1ccccc1 [diphenylmethylsilanol] | 52 mg/kg | 63 mg/kg | 100 mg/kg | 1.5 | 50% |  | ED50 (mice [1]; Example 1, oral, sesame oil suspension, 2 hours after dosing, 95 percent CI 23 to 114 mg./kg., six mice/group, read-out: effective dose to prevent convulsions in half the animals (ED50)): 52 mg/kg; ED50 (mice [1]; Example 1, oral, sesame oil suspension, 4 hours after dosing, 95 percent CI 27 to 141 mg./kg., six mice/group, read-out: effective dose to prevent convulsions in half the animals (ED50)): 63 mg/kg; ED50 (mice [1]; Example 1, oral, sesame oil suspension, 6 hours after dosing, 95 percent CI 47 to 212 mg./kg., six mice/group, read-out: effective dose to prevent convulsions in half the animals (ED50)): 100 mg/kg
2 | CCO[Si](C)(C)c1ccccc1 [drawing 8; R1=CH3; R2=CH3; X=OC2 H5] | 200 mg/kg | 213 mg/kg | 350 mg/kg | > 1.3 | 33.3% |  | 
3 | C[Si](C)(O)c1ccccc1 [drawing 8; R1=CH3; R2=CH3; X=OH] | 118 mg/kg | 135 mg/kg | 110 mg/kg | 2.7 | 33.3% |  | 
4 | O[Si](c1ccccc1)(c1ccccc1)c1ccccc1 [drawing 9; X=OH] | 105 mg/kg | 60 mg/kg | 110 mg/kg | 1.9 |  | n.p. | 
5 | CCO[Si](CC)(OCC)c1ccccc1 [drawing 10; R1=C2 H5; X=OC2 H5] | 150 mg/kg | 180 mg/kg | 64 mg/kg | 1.8 | 66.7% |  | 
6 | CC[Si](O)(O)c1ccccc1 [drawing 10; R1=C2 H5; X=OH] | 120 mg/kg | 160 mg/kg |  | 1.7 | 100% |  | 
7 | CCO[Si](C)(OCC)c1ccccc1 [drawing 10; R1=CH3; X=OC2 H5] | 180 mg/kg | 31 mg/kg | 220 mg/kg | 1.1 |  | n.p. | 
8 | CC(C)O[Si](C)(OC(C)C)c1ccccc1 [drawing 10; R1=CH3; X=OCH(CH3)2] | 94 mg/kg | 84 mg/kg | 41 mg/kg | 1.8 | 33.3% |  | 
9 | C[Si](O)(O)c1ccccc1 [drawing 10; R1=CH3; X=OH, phenylmethylsilanediol] | 80 mg/kg | 110 mg/kg | 80 mg/kg | 1.8 | 33.3% |  | 
10 | CC(=O)O[Si](C)(OC(C)=O)c1ccccc1 [drawing 10; R1=CH3; X=drawing 11] | 200 mg/kg | 125 mg/kg | 142 mg/kg | 1.8 |  | n.p. | 
11 | C=C[Si](OCC)(OCC)c1ccccc1 [drawing 10; R1=CHCH2; X=OC2 H5] | 170 mg/kg | 200 mg/kg | 200 mg/kg | 0.9 | 16.7% |  | 
12 | CO[Si](OC)(OC)c1ccccc1 [drawing 12; X=OCH3] | 560 mg/kg | 300 mg/kg | 160 mg/kg | 1.3 |  | n.p. | 
13 | CC(C)O[Si](OC(C)C)(OC(C)C)c1ccccc1 [drawing 12; X=OCH(CH3)2] |  | > 1000 mg/kg | 800 mg/kg | 2.1 |  | n.p. | MES ED50 (mice [1]; Table I, oral, sesame oil, 2 hours after dosing, n.p. = no protection observed): n.p.
14 | CCO[Si](C)(C)c1ccccc1 [drawing 14] |  |  |  |  |  |  | LD50 at 336 h (Acute oral LD50): 5380 mg/kg
15 | CO[Si](C)(OC)c1ccccc1 [phenylmethyldimethoxysilane] | 56 mg/kg | 50 mg/kg | 106 mg/kg | 1.2 | 33.3% |  | ED50 (mice [1]; 0.5 h, Example 2, oral, sesame oil solution, 1/2 hour after dosing, ten mice/group, read-out: effective dose to prevent convulsions in half the animals (ED50)): 52 mg/kg; ED50 (mice [1]; 1.5 h, Example 2, oral, sesame oil solution, 11/2 hours after dosing, ten mice/group, read-out: effective dose to prevent convulsions in half the animals (ED50)): 64 mg/kg; ED50 (mice [1]; ip, 0.5 h, Example 2, intraperitoneal, sesame oil solution, 1/2 hour after dosing, ten mice/group, read-out: effective dose to prevent convulsions in half the animals (ED50)): 45 mg/kg; ED50 (mice [1]; ip, 1.5 h, Example 2, intraperitoneal, sesame oil solution, 11/2 hours after dosing, ten mice/group, read-out: effective dose to prevent convulsions in half the animals (ED50)): 52 mg/kg; ED50 (mice [1]; ip, Example 2, intraperitoneal, sesame oil solution, 1 hour after dosing, ten mice/group, read-out: effective dose to prevent convulsions in half the animals (ED50)): 65 mg/kg; ED50 (mice [1]; ip, Example 2, intraperitoneal, sesame oil solution, 2 hours after dosing, ten mice/group, read-out: effective dose to prevent convulsions in half the animals (ED50)): 51 mg/kg; ED50 (mice [1]; ip, Example 2, intraperitoneal, sesame oil solution, 3 hours after dosing, ten mice/group, read-out: effective dose to prevent convulsions in half the animals (ED50)): 70 mg/kg; ED50 (mice [1]; Example 2, oral, sesame oil solution, 1 hour after dosing, ten mice/group, read-out: effective dose to prevent convulsions in half the animals (ED50)): 86 mg/kg; ED50 (mice [1]; Example 2, oral, sesame oil solution, 2 hours after dosing, ten mice/group, read-out: effective dose to prevent convulsions in half the animals (ED50)): 82 mg/kg; ED50 (mice [1]; Example 2, oral, sesame oil solution, 3 hours after dosing, ten mice/group, read-out: effective dose to prevent convulsions in half the animals (ED50)): 90 mg/kg
